Experimental data as given in the supplement of paper PMC10307832.

Tests used:
Test in all cases: relative viability (nuclei count vs DMSO), 5 days (fraction); higher = more cells survive
Carboplatin + Alpelisib = compound: C1CC(C1)(C(=O)O)C(=O)O.[NH2-].[NH2-].[Pt+2] [Carboplatin] + Cc1nc(NC(=O)N2CCC[C@H]2C(N)=O)sc1-c1ccnc(C(C)(C)C(F)(F)F)c1 [Alpelisib] (partner 2 µM)
How it was run: (§1)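 Dosing by pin tool came one day after lung cancer cell lines were seeded in 1536-well plates, using either one drug or a fixed anchor-drug dose plus five library-drug doses (not always all listed) in √10 steps. After 5 days, nuclei were counted on 4× images. Relative viability is treated-well nuclei count divided by vehicle-well nuclei count, and values are medians of duplicate plates.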

MLN4924 + Pictilisib = compound: NS(=O)(=O)OC[C@@H]1C[C@@H](n2ccc3c(N[C@H]4CCc5ccccc54)ncnc32)C[C@@H]1O [MLN4924] + CS(=O)(=O)N1CCN(Cc2cc3nc(-c4cccc5[nH]ncc45)nc(N4CCOCC4)c3s2)CC1 [Pictilisib] (partner 1 µM)
How it was run: as §1

MLN4924 + Phenformin = compound: NS(=O)(=O)OC[C@@H]1C[C@@H](n2ccc3c(N[C@H]4CCc5ccccc54)ncnc32)C[C@@H]1O [MLN4924] + N=C(N)NC(=N)NCCc1ccccc1 [Phenformin] (partner 250 µM)
How it was run: as §1

GSK126 + Decitabine = compound: CC[C@H](C)N1C=C(C2=C(C=C(C=C21)C3=CN=C(C=C3)N4CCNCC4)C(=O)NCC5=C(C=C(NC5=O)C)C)C [GSK126] + Nc1ncn([C@H]2C[C@H](O)[C@@H](CO)O2)c(=O)n1 [Decitabine] (partner 2 µM)
How it was run: as §1

| Cell Line | relative viability (Carboplatin + Alpelisib; first compound 0.08 µM) | relative viability (Carboplatin + Alpelisib; first compound 0.253 µM) | relative viability (Carboplatin + Alpelisib; first compound 0.8 µM) | relative viability (Carboplatin + Alpelisib; first compound 2.53 µM) | relative viability (Carboplatin + Alpelisib; first compound 8 µM) | relative viability (MLN4924 + Pictilisib; first compound 0.04 µM) | relative viability (MLN4924 + Pictilisib; first compound 0.1265 µM) | relative viability (MLN4924 + Pictilisib; first compound 0.4 µM) | relative viability (MLN4924 + Pictilisib; first compound 1.265 µM) | relative viability (MLN4924 + Pictilisib; first compound 4 µM) | relative viability (MLN4924 + Phenformin; first compound 0.04 µM) | relative viability (MLN4924 + Phenformin; first compound 0.1265 µM) | relative viability (MLN4924 + Phenformin; first compound 0.4 µM) | relative viability (MLN4924 + Phenformin; first compound 1.265 µM) | relative viability (MLN4924 + Phenformin; first compound 4 µM) | relative viability (GSK126 + Decitabine; first compound 0.08 µM) | relative viability (GSK126 + Decitabine; first compound 0.253 µM) | relative viability (GSK126 + Decitabine; first compound 0.8 µM) | relative viability (GSK126 + Decitabine; first compound 2.53 µM) | relative viability (GSK126 + Decitabine; first compound 8 µM) |
| --- | --- | --- | --- | --- | --- | --- | --- | --- | --- | --- | --- | --- | --- | --- | --- | --- | --- | --- | --- | --- |
| NCI-H2126 | 0.777 | 0.763 | 0.795 | 0.758 | 0.713 | 0.497 | 0.457 | 0.315 | 0.267 | 0.264 | 0.566 | 0.566 | 0.432 | 0.321 | 0.304 | 0.567 | 0.591 | 0.609 | 0.622 | 0.593 |
| NCI-H838 | 1.09 | 1.07 | 0.953 | 0.995 | 0.979 | 0.365 | 0.236 | 0.253 | 0.138 | 0.189 | 0.538 | 0.319 | 0.263 | 0.127 | 0.128 | 0.52 | 0.492 | 0.451 | 0.508 | 0.502 |
| EPLC-272H | 0.966 | 0.931 | 0.936 | 0.986 | 0.843 | 0.119 | 0.246 | 0.0811 | 0.135 | 0.135 | 0.343 | 0.325 | 0.0478 | 0.103 | 0.126 | 0.441 | 0.349 | 0.39 | 0.358 | 0.361 |
| NCI-H1437 | 0.988 | 0.989 | 0.929 | 0.947 | 0.828 | 0.423 | 0.409 | 0.355 | 0.0891 | 0.081 | 0.325 | 0.337 | 0.388 | 0.258 | 0.195 | 0.584 | 0.569 | 0.536 | 0.499 | 0.527 |
| NCI-H2405 | 0.925 | 0.734 | 0.671 | 0.763 | 0.639 | 0.452 | 0.73 | 0.505 | 0.246 | 0.254 | 0.403 | 0.446 | 0.362 | 0.284 | 0.306 | 0.757 | 0.66 | 0.71 | 0.747 | 0.729 |
| NCI-H1666 | 1.16 | 0.909 | 0.855 | 0.773 | 0.543 | 0.404 | 0.478 | 0.247 | 0.159 | 0.156 | 0.509 | 0.453 | 0.449 | 0.265 | 0.337 | 0.731 | 0.755 | 0.755 | 0.82 | 0.726 |
| NCI-H1993 | 0.663 | 0.745 | 0.643 | 0.62 | 0.678 | 0.701 | 0.681 | 0.7 | 0.647 | 0.643 | 0.535 | 0.579 | 0.528 | 0.468 | 0.487 | 0.686 | 0.597 | 0.575 | 0.555 | 0.605 |
| HCC-78 | 0.291 | 0.391 | 0.317 | 0.285 | 0.33 | 0.272 | 0.187 | 0.14 | 0.138 | 0.139 | 0.694 | 0.634 | 0.888 | 0.219 | 0.203 | 0.756 | 0.659 | 0.683 | 0.839 | 0.74 |
| LU99A | 0.623 | 0.584 | 0.493 | 0.522 | 0.365 | 0.334 | 0.299 | 0.226 | 0.153 | 0.137 | 0.477 | 0.622 | 0.437 | 0.196 | 0.213 | 0.986 | 0.915 | 1.03 | 0.916 | 0.999 |
| NCI-H520 | 0.894 | 1.06 | 0.897 | 0.908 | 0.737 | 0.322 | 0.402 | 0.359 | 0.276 | 0.238 | 0.566 | 0.439 | 0.429 | 0.265 | 0.238 | 0.611 | 0.505 | 0.487 | 0.494 | 0.557 |
| NCI-H661 | 0.567 | 0.66 | 0.703 | 0.595 | 0.648 | 0.414 | 0.567 | 0.482 | 0.343 | 0.337 | 0.289 | 0.329 | 0.294 | 0.286 | 0.234 | 0.626 | 0.506 | 0.498 | 0.535 | 0.563 |
| NCI-H1975 | 0.669 | 0.655 | 0.728 | 0.598 | 0.666 | 0.534 | 0.699 | 0.314 | 0.167 | 0.156 | 0.418 | 0.479 | 0.494 | 0.328 | 0.184 | 0.427 | 0.321 | 0.431 | 0.397 | 0.377 |
| NCI-H1355 | 0.885 | 0.866 | 0.843 | 0.687 | 0.721 | 0.332 | 0.421 | 0.273 | 0.182 | 0.176 | 0.42 | 0.407 | 0.352 | 0.218 | 0.235 | 0.391 | 0.334 | 0.318 | 0.336 | 0.416 |
| NCI-H1755 | 0.928 | 0.894 | 0.97 | 0.932 | 0.894 | 0.221 | 0.358 | 0.287 | 0.134 | 0.139 | 0.605 | 0.534 | 0.332 | 0.228 | 0.23 | 0.696 | 0.68 | 0.684 | 0.662 | 0.714 |
